Measurements as given in the NIST ThermoML archive (doi:10.1016/j.tca.2007.04.007).
± gives the expanded uncertainty stated by the source.

Experiment: molar heat capacity at constant pressure
Conditions: 101.33 kPa, Crystal, Large sample (1 g) DSC

## C[C@@H]1CC[C@H]2[C@@H](C)C(=O)O[C@@H]3O[C@@]4(C)CC[C@@H]1[C@]32OO4 [artemisinin]
80.88 K
  molar heat capacity at constant pressure: 106.29 ± 1.6 J/K/mol
84.39 K
  molar heat capacity at constant pressure: 107.4 ± 1.7 J/K/mol
87.31 K
  molar heat capacity at constant pressure: 111.29 ± 1.7 J/K/mol
90.28 K
  molar heat capacity at constant pressure: 115.11 ± 1.8 J/K/mol
93.15 K
  molar heat capacity at constant pressure: 118.77 ± 1.8 J/K/mol
96.08 K
  molar heat capacity at constant pressure: 122.29 ± 1.9 J/K/mol
99.06 K
  molar heat capacity at constant pressure: 126.22 ± 2 J/K/mol
101.96 K
  molar heat capacity at constant pressure: 129.96 ± 2 J/K/mol
104.91 K
  molar heat capacity at constant pressure: 133.57 ± 2.1 J/K/mol
107.91 K
  molar heat capacity at constant pressure: 137.36 ± 2.1 J/K/mol
110.85 K
  molar heat capacity at constant pressure: 141.04 ± 2.2 J/K/mol
113.72 K
  molar heat capacity at constant pressure: 144.58 ± 2.2 J/K/mol
116.65 K
  molar heat capacity at constant pressure: 147.72 ± 2.3 J/K/mol
119.63 K
  molar heat capacity at constant pressure: 151.4 ± 2.3 J/K/mol
122.57 K
  molar heat capacity at constant pressure: 154.67 ± 2.4 J/K/mol
125.44 K
  molar heat capacity at constant pressure: 158.04 ± 2.4 J/K/mol
128.38 K
  molar heat capacity at constant pressure: 161.18 ± 2.5 J/K/mol
131.37 K
  molar heat capacity at constant pressure: 164.32 ± 2.5 J/K/mol
134.31 K
  molar heat capacity at constant pressure: 167.29 ± 2.6 J/K/mol
137.21 K
  molar heat capacity at constant pressure: 170.2 ± 2.6 J/K/mol
140.06 K
  molar heat capacity at constant pressure: 173.58 ± 2.7 J/K/mol
142.85 K
  molar heat capacity at constant pressure: 175.98 ± 2.7 J/K/mol
145.7 K
  molar heat capacity at constant pressure: 178.74 ± 2.8 J/K/mol
148.61 K
  molar heat capacity at constant pressure: 181.39 ± 2.8 J/K/mol
151.48 K
  molar heat capacity at constant pressure: 184.15 ± 2.9 J/K/mol
154.31 K
  molar heat capacity at constant pressure: 188.26 ± 2.9 J/K/mol
157.09 K
  molar heat capacity at constant pressure: 189.51 ± 2.9 J/K/mol
159.85 K
  molar heat capacity at constant pressure: 190.78 ± 3 J/K/mol
162.66 K
  molar heat capacity at constant pressure: 193.14 ± 3 J/K/mol
165.54 K
  molar heat capacity at constant pressure: 194.65 ± 3 J/K/mol
168.38 K
  molar heat capacity at constant pressure: 196.91 ± 3 J/K/mol
171.2 K
  molar heat capacity at constant pressure: 197.84 ± 3.1 J/K/mol
173.98 K
  molar heat capacity at constant pressure: 199.03 ± 3.1 J/K/mol
176.74 K
  molar heat capacity at constant pressure: 201.03 ± 3.1 J/K/mol
179.47 K
  molar heat capacity at constant pressure: 203.22 ± 3.1 J/K/mol
182.17 K
  molar heat capacity at constant pressure: 204.81 ± 3.2 J/K/mol
184.93 K
  molar heat capacity at constant pressure: 207.17 ± 3.2 J/K/mol
187.75 K
  molar heat capacity at constant pressure: 209.02 ± 3.2 J/K/mol
190.54 K
  molar heat capacity at constant pressure: 210.2 ± 3.3 J/K/mol
193.3 K
  molar heat capacity at constant pressure: 211.69 ± 3.3 J/K/mol
196.04 K
  molar heat capacity at constant pressure: 214.53 ± 3.3 J/K/mol
198.78 K
  molar heat capacity at constant pressure: 218.09 ± 3.4 J/K/mol
201.49 K
  molar heat capacity at constant pressure: 234.61 ± 3.6 J/K/mol
204.35 K
  molar heat capacity at constant pressure: 248.75 ± 3.9 J/K/mol
207.26 K
  molar heat capacity at constant pressure: 254.52 ± 3.9 J/K/mol
210.15 K
  molar heat capacity at constant pressure: 259.16 ± 4 J/K/mol
213.03 K
  molar heat capacity at constant pressure: 263.67 ± 4.1 J/K/mol
215.98 K
  molar heat capacity at constant pressure: 268.33 ± 4.2 J/K/mol
218.98 K
  molar heat capacity at constant pressure: 272.61 ± 4.2 J/K/mol
221.97 K
  molar heat capacity at constant pressure: 277.47 ± 4.3 J/K/mol
224.93 K
  molar heat capacity at constant pressure: 283.14 ± 4.4 J/K/mol
227.86 K
  molar heat capacity at constant pressure: 300.11 ± 4.7 J/K/mol
230.9 K
  molar heat capacity at constant pressure: 305.21 ± 4.7 J/K/mol
234.15 K
  molar heat capacity at constant pressure: 304.08 ± 4.7 J/K/mol
237.2 K
  molar heat capacity at constant pressure: 300.49 ± 4.7 J/K/mol
240.2 K
  molar heat capacity at constant pressure: 312.96 ± 4.8 J/K/mol
243.25 K
  molar heat capacity at constant pressure: 303.71 ± 4.7 J/K/mol
246.2 K
  molar heat capacity at constant pressure: 290.19 ± 4.5 J/K/mol
249.15 K
  molar heat capacity at constant pressure: 291.35 ± 4.5 J/K/mol
252.08 K
  molar heat capacity at constant pressure: 292.72 ± 4.5 J/K/mol
254.99 K
  molar heat capacity at constant pressure: 294.78 ± 4.6 J/K/mol
257.88 K
  molar heat capacity at constant pressure: 295.87 ± 4.6 J/K/mol
260.75 K
  molar heat capacity at constant pressure: 297.43 ± 4.6 J/K/mol
263.6 K
  molar heat capacity at constant pressure: 299.57 ± 4.6 J/K/mol
266.43 K
  molar heat capacity at constant pressure: 301.66 ± 4.7 J/K/mol
269.3 K
  molar heat capacity at constant pressure: 304.16 ± 4.7 J/K/mol
272.21 K
  molar heat capacity at constant pressure: 307.87 ± 4.8 J/K/mol
275.11 K
  molar heat capacity at constant pressure: 309.22 ± 4.8 J/K/mol
278.48 K
  molar heat capacity at constant pressure: 312.58 ± 4.8 J/K/mol
282.32 K
  molar heat capacity at constant pressure: 315.57 ± 4.9 J/K/mol
286.12 K
  molar heat capacity at constant pressure: 318.4 ± 4.9 J/K/mol
289.88 K
  molar heat capacity at constant pressure: 323.79 ± 5 J/K/mol
293.71 K
  molar heat capacity at constant pressure: 327.62 ± 5.1 J/K/mol
297.59 K
  molar heat capacity at constant pressure: 331.62 ± 5.1 J/K/mol
301.45 K
  molar heat capacity at constant pressure: 336.33 ± 5.2 J/K/mol
305.28 K
  molar heat capacity at constant pressure: 339.95 ± 5.3 J/K/mol
309.08 K
  molar heat capacity at constant pressure: 344.57 ± 5.3 J/K/mol
312.86 K
  molar heat capacity at constant pressure: 351.73 ± 5.4 J/K/mol
316.64 K
  molar heat capacity at constant pressure: 334.75 ± 5.2 J/K/mol
320.44 K
  molar heat capacity at constant pressure: 337.71 ± 5.2 J/K/mol
324.16 K
  molar heat capacity at constant pressure: 338.79 ± 5.2 J/K/mol
327.84 K
  molar heat capacity at constant pressure: 344.42 ± 5.3 J/K/mol
331.58 K
  molar heat capacity at constant pressure: 356.39 ± 5.5 J/K/mol
335.37 K
  molar heat capacity at constant pressure: 360.69 ± 5.6 J/K/mol
339.11 K
  molar heat capacity at constant pressure: 368.06 ± 5.7 J/K/mol
342.41 K
  molar heat capacity at constant pressure: 376.18 ± 5.8 J/K/mol
345.26 K
  molar heat capacity at constant pressure: 376.26 ± 5.8 J/K/mol
348.11 K
  molar heat capacity at constant pressure: 388.36 ± 6 J/K/mol
350.96 K
  molar heat capacity at constant pressure: 394.39 ± 6.1 J/K/mol
353.85 K
  molar heat capacity at constant pressure: 397.54 ± 6.2 J/K/mol
356.81 K
  molar heat capacity at constant pressure: 403.86 ± 6.3 J/K/mol
359.88 K
  molar heat capacity at constant pressure: 413.08 ± 6.4 J/K/mol
363.03 K
  molar heat capacity at constant pressure: 429.5 ± 6.7 J/K/mol
